Experiments:
Assay type in all cases: cell-based, mouse
Bcl-2 = test: Immunoblotting, Bcl-2 expression in GL261; details: GL261, 300 µM, 48 h
Protocol: (§1) GL261 cell was seeded at 2.5 × 10^4 cells per well in 24-well plates with culture medium supplemented with 10% FBS. After 24 h of incubation, the medium was changed to DMEM containing 10% FBS and 0.1%DMSO PBS, 300 μM temozolomide, 10 μM astaxanthin, or 10 μM adonixanthin was added for 6 and 48 h. Cells were lysed in a special buffer (RIPA buffer R0278; Sigma-Aldrich, St. Louis, MO, USA) with a protease inhibitor cocktail (Sigma-Aldrich), phosphatase inhibitor cocktails 2 and 3 (Sigma-Aldrich), and sample buffer (Wako, Osaka, Japan). The protein concentration was determined by comparison with a known concentration of bovine serum albumin using the BCA Protein Assay Kit (Thermo Fisher Scientific). The amount of total protein was 2 μg. Equal amounts of protein in sample buffer containing 10% 2-mercaptoethanol were subjected to sodium dodecyl sulphate polyacrylamide gel electrophoresis (SDS-PAGE) in 5-20% gradient gels (SuperSep Ace; Wako), and the separated proteins were transferred to polyvinylidene difluoride membrane (Immobilon-P; Merck Millipore Corporation, Bedford, MA, USA). After blocking for 30 min with Blocking One-P (Nacalai Tesque), we incubated the membranes with primary antibodies overnight at 4 °C. […] The band intensity was […] an Immuno Star LD (Wako). Band intensity was measured using an LAS-4000 UV mini Luminescent Image Analyzer (Fujifilm, Tokyo Japan) and Multi Gauge Version 3.0 (Fujifilm). The phosphorylation of ERK1/2, Akt, and p38 MAPK was measured by normalizing against total ERK1/2, total Akt, and total p38 MAPK. […]

p27 = test: Immunoblotting, p27 expression in GL261; details: GL261, 300 µM temozolomide, 48 h
Protocol: as §1

GL261 cells = test: BrdU cell proliferation assay; details: GL261, temozolomide group (concentration not printed for this test); control group 60.56 ± 1.40%
Protocol: GL261 cells were seeded onto 96-well plates at a density of 2 × 10^3 cells/well with DMEM supplemented with 10% FBS and then incubated for 24 h, after which the culture medium was changed to DMEM containing 10% FBS. Then, astaxanthin, adonixanthin, or temozolomide (Tokyo Chemical Industry Co., Ltd., Tokyo, Japan) were added to the culture. After 72 h of culture, the culture medium was changed to DMEM containing 10% FBS and treated with BrdU at 10 µM for 3 h. After that, immunocytochemistry was performed according to the protocol of anti-BrdU antibody (abcam, ab6326).

## Cn1nnc2c(C(N)=O)ncn2c1=O [temozolomide, reference compound]
Bcl-2
  expression of Bcl-2 vs. control: N.S.
p27
  expression of p27: significantly reduced
GL261 cells
  BrdU-positive cell rate: 19.17 ± 1.77%

Reference: publication PMC7551886, “Antitumour Effects of Astaxanthin and Adonixanthin on Glioblastoma” (Marine Drugs, 2020)
